In patent US7718768B2, “Biologically active peptide [sequence]” (CMS Peptides Patent Holding Company Limited, priority 2001, dated 2010):
Several values for one entry are separate records, joined by “and”; a condition that tells them apart may be missing. Equal entries are not always repeated. Marks after values point to notes of the source that are not given here. No end group written: not given here.

Assays:
[1] = tested on: T lymphocyte; set-up: species or system BALB/c mice; conditions: mouse, in vivo, ip
[2] = tested on: ascitic fluid type liver cancer H22; experiment: survival of mice with transplanted ascitic fluid type liver cancer H22; type: in vivo, BALB/c mice; conditions: for Survival index: versus saline group
Experimental: (§1) Intraperitoneal injection, once per day. […] Treatment of all groups with testing substance lasted for 30 days or until the animal died unless otherwise specified.
Stock H22 cells were incubated in DMEM/F12 medium supplemented with 10% fetal bovine serum, 37° C./5% CO2 for 72 hrs, then washed 3-4 times with Hank's solution at room temperature. Adjust cell concentration to 1-2×10^9 per liter with Hank's solution. 0.2 ml of the cell suspension was implanted to the abdominal cavity of several BALB/c mice for 6-8 days. The mice were killed by cervical vertebra dislocation. Ascitic fluid of the mice was collected asceptically and the cell concentration adjusted to 1×10^6 per ml with Hank's solution. 0.2 ml of the cell suspension was implanted into the abdominal cavity of healthy mice to generate the H22 carrying mouse model for ascitic fluid type liver cancer. Administration of test substance started as described in section Method 1. Survival data of the mice was recorded. If the animal survived longer than the experiment, the survival days was recorded as the duration of the experiment. Mean survival day was obtained by the Kaplan-meier method in the Survival option of the SPSS software. The survival index was calculated according to the following formula: Survival index(mean survival days in treatment group−mean survival days of control group)÷mean survival days of control group×100% 4. The Effect of Peptides on the Cellular Immunity of BALB/c Mice with Transplanted Ascitic Fluid Type Liver Cancer H22 4.1 Preparation of Spleen Cell Suspension^[1,4]

[3] = tested on: mononuclear phagocyte; experiment: carbon particle clearance test, phagocytotic activity of mononuclear phagocyte; type: in vivo, BALB/c mice; set-up: key: α = (cube root of K)×(body weight ÷ liver+spleen weight); conditions: IFN-γ and IL-2 groups 3×10^5 IU/kg/day, X ± SD
Method in brief: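 Mice received India ink (0.1 ml/kg i.v., 5-fold diluted) on day 16, one day after last dosing; blood at 1 and 5 min was lysed in 0.1% Na2CO3 and read at OD680. Clearance index K from log OD decline; phagocytic index α = ∛K × body weight/(liver+spleen weight); thymus and spleen indices as % body weight.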

[4] = tested on: mononuclear phagocyte; experiment: phagocytosis index in mice with transplanted S180 sarcoma; type: in vivo, BALB/c mice
Experimental: as §1
(§2) Stock S180 sarcoma cells were incubated in DMEM/F12 medium supplemented with 10% fetal bovine serum, 37° C., 5% CO2 for 72 hrs, then washed 3-4 times with Hank's solution at room temperature. Adjust the cell concentration to 1-2×10^9 per liter with Hank's solution. […] The mice were killed by cervical vertebra dislocation. Vigorously growing and non-disrupted tumor masses were harvested and washed clean with sterile saline. The tissue was dispersed in saline to a homogenous cell suspension, in a ratio of 1 g tissue to 4 ml saline. The sarcoma bearing mice model was prepared with an injection of 0.2 ml cell suspension through the armpit. Administration of test substance treatment started as described in section Method 1.
2.1 The effect of peptides on the phagocytotic function of mononuclear phagocyte in mice with S180 sarcoma was analyzed by injecting mice from the tail vein with 0.1 ml/10 g body weight of Indian ink (1:5 dilution with normal saline) on the second day after the last test substance administration. At one minute and five minutes after the injection, 20 μl blood was obtained from the eye canthus with heparinised tubing. The blood was mixed with 2 ml 0.1% w/v Na2CO3 and then OD680nm obtained. The outline clear index K was calculated by the following formula: K=(lgA1−lgA2)÷(t2−t1)
(§3) After the phagocytosis index study, the mice were killed by cervical vertebra dislocation. The liver, spleen, and cancer tissue were dissected, blotted dry, and weighed.
1. The Phagocytosis Index α was Calculated as Below: α=(^3√K)×(W÷WLS)

[5] = tested on: S180 sarcoma cells; experiment: growth of transplanted S180 sarcoma; type: in vivo, BALB/c mice; conditions: for Tumor inhibition index: versus saline group
Experimental: as §1, §2, §3
2.2 The Tumor Growth Inhibition Index was Calculated According to the Following Formula: Tumor growth inhibition index=(mean tumor weight of control group−mean tumor weight of treatment group)÷mean tumor weight of control group 3.

[6] = peptide 5 μg/kg/day i.p. 15 days
[7] = peptide 0.5 μg/kg/day i.p. 15 days
[8] = peptide 50 μg/kg/day i.p. 15 days
[9] = peptide 500 μg/kg/day i.p. 15 days
[10] = 3 × 10^5 IU/kg i.p. once per day

In the case of RVAPEEHPTL [CMS011], the “activity of T lymphocyte in secreting IFN” value (“activity of T lymphocyte” for short) [1] is reported as 89 ± 18 IU, the Survival days ([2]; 5 μg/kg i.p. once per day) is reported as 36.4 ± 22.2*^& days and the Survival index ([2]; 5 μg/kg i.p. once per day) is reported as 60.2%. The phagocytotic index [3, 6] was 6.4 ± 1.1.

For PTTKTYFPHF [CMS001], the Phagocytosis index ([4]; 5 μg/kg i.p. once per day) was 6.67 ± 0.43*^ and the Phagocytosis index ([4]; 50 μg/kg i.p. once per day) was 6.24 ± 0.33*^.

With IGMESAGIHETTY [CMS016] the “activity of T lymphocyte” value [1] was 162 ± 19*^@^ IU and the phagocytotic index [3, 6] was 6.9 ± 0.8*^.

“Tyr Ser Leu (YSL; listed as Sus scrofa) [CMS024]” was tested, and the Survival days ([2]; 0.5 μg/kg i.p. once per day) was 46.4 ± 14.8*^^&$ days, the Survival index ([2]; 0.5 μg/kg i.p. once per day) was 76.9% and the “postmortem examination of the long-surviving mice” value ([2]; 0.5 μg/kg/day) was “did not show sign of tumor establishment”. For the same molecule, the “share of mice surviving longer than 90 days” value ([2]; 0.5 μg/kg/day, n=6, two months after the experiment ended) was “more than 30%”, the Survival days ([2]; 5 μg/kg i.p. once per day) was 40.6 ± 14.6*^&$ days and the Survival index ([2]; 5 μg/kg i.p. once per day) was 54.8%. The Survival days ([2]; 50 μg/kg i.p. once per day) was 36.3 ± 12.7*^&$ days, the Survival index ([2]; 50 μg/kg i.p. once per day) was 38.4% and the phagocytotic index [3, 7] was 6.7 ± 0.5*^. The phagocytotic index [3, 8] was 6.6 ± 0.7 and the phagocytotic index [3, 9] was 6.4 ± 1.0.

In the case of VGMGQKDSY [CMS019], the phagocytotic index [3, 6] is reported as 6.8 ± 0.6*^ and the phagocytotic index [3, 8] is reported as 6.7 ± 0.9*^.

With “Phe Glu Glu Glu (FEEE; listed as Sus scrofa) [CMS032]” the Survival days ([2]; 0.5 μg/kg i.p. once per day) was 42.8 ± 12.2*^^&$ days and the Survival index ([2]; 0.5 μg/kg i.p. once per day) was 63.3%.

LRVAPEEHPTL [CMS009] was tested, and the “activity of T lymphocyte” value [1] was 121 ± 15*^ IU and the phagocytotic index [3, 6] was 6.9 ± 0.9*^.

In the case of VAPEEHPTLLTEAPLNPK [CMS010], the Tumor weight ([5]; 500 μg/kg i.p. once per day) is reported as 0.67 ± 0.35 g, the Tumor inhibition index ([5]; 500 μg/kg i.p. once per day) is reported as 48.4% and the “activity of T lymphocyte” value [1] is reported as 167 ± 13*^@^ IU and 142 ± 18*^@^ IU. For the same molecule, the phagocytotic index [3, 6] was 7.1 ± 0.7*^.

“Pro Glu Asn Phe (PENF; listed as Sus scrofa) [CMS034]” gave a Tumor weight ([5]; 0.5 μg/kg i.p. once per day) of 0.83 ± 0.48 g, a Tumor inhibition index ([5]; 0.5 μg/kg i.p. once per day) of 35.9% and a Phagocytosis index ([4]; 0.5 μg/kg i.p. once per day) of 6.35 ± 1.02. For the same molecule, the Phagocytosis index ([4]; 5 μg/kg i.p. once per day) was 6.20 ± 0.44*^.

FNFVPP [CMS003] was tested, and the “activity of T lymphocyte” value [1] was 106 ± 16 IU, the phagocytotic index [3, 6] was 6.9 ± 0.9*^ and the phagocytotic index [3, 9] was 6.6 ± 0.7.

“Phe Val Asn Asp (FVND; listed as Sus scrofa) [CMS035]” was tested, and the Tumor weight ([5]; 5 μg/kg i.p. once per day) was 0.71 ± 0.37 g, the Tumor inhibition index ([5]; 5 μg/kg i.p. once per day) was 44.6% and the phagocytotic index [3, 6] was 6.9 ± 0.9*^.

With KAVGHLDDLPGAL [CMS008] the Survival days ([2]; 5 μg/kg i.p. once per day) was 50.7 ± 20.9*^& days, the Survival index ([2]; 5 μg/kg i.p. once per day) was 67.8% and the phagocytotic index [3, 6] was 6.4 ± 0.5. For the same molecule, the phagocytotic index [3, 9] was 6.5 ± 1.2.

B1: IFN-γ: recombinant mouse interferon-γ, Beijing Biotech Inc.; positive control immunostimulant (protein, UniProt P01580 23-155, looked up)
Interferon gamma: HGTVIESLESLNNYFNSSGIDVEEKSLFLDIWRNWQKDGDMKILQSQIISFYLRLFEVLKDNQAISNNISVIESHLITTFFSNSKAKKDAFMSIAKFEVNNPQVQRQAFNELIRVVHQLLPESSLRKRKRSRC
Work on B1 yielded a Tumor weight [5, 10] of 0.96 ± 0.45 g, a Tumor inhibition index [5, 10] of 25.3% and a Phagocytosis index [4, 10] of 5.45 ± 0.71. For the same molecule, the “activity of T lymphocyte” value [1] was 139 ± 16 IU and 125 ± 18 IU and 124 ± 16 IU, the Survival days [2, 10] was 27.8 ± 7.5 days and the Survival index [2, 10] was 6.1%. For the same molecule, the phagocytotic index [3, 7] was 6.4 ± 0.9, the phagocytotic index [3, 6] was 6.4 ± 0.9 and the phagocytotic index [3, 8] was 6.4 ± 0.9. The phagocytotic index [3, 9] was 6.4 ± 0.9.
